According to patent US7364866B2, “Drosophila G protein coupled receptors, nucleic acids, and methods related to the same” (Pharmacia & Upjohn Company, priority 1999, dated 2008):
Non-standard residues stand in square brackets, D forms with d. No end group written: not given here. pGlu = O=C1CC[C@@H](C(=O)O)N1

Tests used:
[1] = target: DmGPCR5 (Drosophila melanogaster, UniProt P30975, L70Q); assay: biochemical; parameters: expressed in transfected cells; host or cells: CHO-1000A (so in the source), transient; conditions: DmGPCR5; given in words
Protocol: (§1) The transfected cells were washed once with ice-cold Dulbecco's phosphate buffered saline (PBS), 5 ml per 10 cm plate, and scraped into 5 ml of the same buffer. Cell suspensions from multiple plates were combined and centrifuged at 500×g for 10 min at 4° C. The cell pellet was reconstituted in ice-cold TEE (25 mM TRIS, 5 mM EGTA, 5 mM EDTA). Convenient aliquots were snap-frozen in liquid nitrogen and stored at −70° C. After thawing, the cells were homogenized and centrifuged at 4° C., 500×g for 5 minutes to pellet nuclei and unbroken cells. The supernatant was centrifuged at 47,000×g for 30 minutes at 4° C. The membrane pellet was washed once with TEE, resuspended in 20 mM HEPES, pH 7.4, 100 mM NaCl, 10 mM MgCl2, 1 mM EDTA (assay buffer), aliquoted and frozen in liquid nitrogen. Membrane aliquots were stored at −70° C. Membrane protein concentration was determined using the BCA Protein Assay Reagent from Pierce (Rockford, Ill.) and BSA as standard.
Initially, reaction mixtures were prepared in 96-well polypropylene plates (Nunc). In each well, peptide aqueous solution (20 μl, 10×), or water controls (20 μl), 18.2 μM GDP in assay buffer (0.11 ml, 10 μM final), and membranes suspended in assay buffer (50 μl, 10 μg membrane protein) were mixed and placed on ice. […] Then the membranes were washed 3 times with 0.25 ml ice-cold wash buffer/well (10 mM HEPES, 10 mM MgCl2, pH 7.4) and vacuum filtered. […] Each treatment was carried out in triplicates.
(§2) Ligand-induced stimulation of [^35S]GTPγS binding was expressed as fold increase over the basal activity with no ligand added. Each treatment was run either in triplicate, or, on occasion, in duplicate, and the binding (cpm) was calculated as means +/− standard deviations. Dose-response curves for the receptor/ligand systems were analyzed using a non-linear least square SAS model, y=Bmax X/(Kd+X). Other dose-response curves were analyzed using Prism (GraphPad Software, Inc. San Diego, Calif.) and the following equation y=Bottom+(Top−Bottom)/(1+10^LogEC50-X).
(§3) Originally, we have chosen the GTPγS assay as a functional assay because agonist-driven stimulation of GTPγS reflects early events in the DmGPCR activation cascade, regardless of further activation pathways of various down-stream signaling events. This appears especially useful for the assessment of possible activation of orphan DmGPCRs with unknown functions and unknown signaling pathways. The GTPγS assay was carried out with membranes prepared from CHO cells transiently transfected with DNA encoding Drosophila GPCRs using a 96-well MultiScreen G/FB filter plates and a MultiScreen vacuum manifold (Millipore) for filtration. Since the GTPγS assay is known to poorly recognize GPCRs coupled to the Gq class of G-proteins, a Ca^+2 mobilization assay based on a FLIPR readout was used as well to evaluate Gq-coupled orphan GPCRs in CHO cells transiently transfected with DNA encoding Drosophila GPCRs.

[2] = system: DmGPCR9; assay: calcium mobilization assay (FLIPR); type: cell-based, Drosophila melanogaster; conditions: tested at 10 μM
Protocol: (§4) Changes in intracellular calcium levels are another recognized indicator of G protein-coupled receptor activity, and such assays can be employed to screen for modulators of DmGPCR activity. For example, CHO cells stably transfected with a DmGPCR expression vector are plated at a density of 4×10^4 cells/well in Packard black-walled, 96-well plates specially designed to discriminate fluorescence signals emanating from the various wells on the plate. The cells are incubated for 60 minutes at 37° C. in modified Dulbecco's PBS (D-PBS) containing 36 mg/L pyruvate and 1 g/L glucose and one of four calcium indicator dyes (Fluo-3™ AM, Fluo-4™ AM, Calcium Green™-1 AM, or Oregon Green™ 488 BAPTA-1 AM), each at a concentration of 4 μM. […]
(§5) A calcium response is initiated by the addition of one or more candidate receptor agonist compounds, calcium ionophore A23187 (10 μM; positive control), or ATP (4 μM; positive control). Fluorescence is measured by Molecular Device's FLIPR with an argon laser (excitation at 488 nm). […] Basal fluorescence of cells was measured for 20 seconds prior to addition of candidate agonist, ATP, or A23187, and the basal fluorescence level was subtracted from the response signal. The calcium signal is measured for approximately 200 seconds, taking readings every two seconds. […]

[3] = target: T1, Dmgpcr6bL (Drosophila melanogaster, UniProt P25931, I47L); assay: calcium mobilization assay (FLIPR); type: cell-based; conditions: FaRPs tested at 10 μM, active sequences listed in Table 7 (6aL and 6bL)
T1 construct: A new 5′ PCR primer was designed that incorporated the PnuFlyPep15731 start codon; expressed in transfected cells; host or cells: CHO-K1 or CHO-10001A, transient
Protocol: as §4, §5

[4] = target: T2, Dmgpcr6aL (Drosophila melanogaster, UniProt P25931, I47L); assay: calcium mobilization assay (FLIPR); type: cell-based; conditions: FaRPs tested at 10 μM, active sequences listed in Table 7 (6aL and 6bL)
T2 construct: A new 5′ PCR primer was designed that incorporated the PnuFlyPep15731 start codon; expressed in transfected cells; host or cells: CHO-K1 or CHO-10001A, transient
Protocol: as §4, §5

[5] = target: T3, DmGPCR6a (Drosophila melanogaster, UniProt P25931, I47L); assay: [35S]GTPγS binding assay, membranes of transfected CHO cells; type: biochemical; conditions: peptide tested at 5 μM
T3 construct: expressed in transfected cells; host or cells: CHO cells, transient
Protocol: as §1, with “The membrane pellet was washed once with TEE, resuspended in 20 mM HEPES, pH 7.4, 100 mM NaCl, 10 mM MgCl2, 1 mM EDTA (assay buffer), aliquoted and frozen in liquid nitrogen. Membrane aliquots were stored at −70° C.” left out, “standard. […]” for “standard.”
as §2, with “y=Bottom+(Top−Bottom)/(1+10^LogEC50-X). […]” for “y=Bottom+(Top−Bottom)/(1+10^LogEC50-X).”

[6] = system: DmGPCR7; assay: FLIPR analysis of intracellular calcium release; type: cell-based, Drosophila melanogaster; conditions: DmGPCR7 in CHO-10001A cells; peptides with C-terminal HSWGa; given in words
Protocol: Changes in intracellular calcium levels are another recognized indicator of G protein-coupled receptor activity, and such assays can be employed to screen for modulators of DmGPCR activity. For example, CHO cells stably transfected with a DmGPCR expression vector are plated at a density of 4×10^4 cells/well in Packard black-walled, 96-well plates specially designed to discriminate fluorescence signals emanating from the various wells on the plate. The cells are incubated for 60 minutes at 37° C. in modified Dulbecco's PBS (D-PBS) containing 36 mg/L pyruvate and 1 g/L glucose and one of four calcium indicator dyes (Fluo-3™ AM, Fluo-4™ AM, Calcium Green™-1 AM, or Oregon Green™ 488 BAPTA-1 AM), each at a concentration of 4 μM. Plates are washed once with modified D-PBS and incubated for 10 minutes at 37° C. to remove residual dye from the cellular membrane. In addition, a series of washes with modified D-PBS is performed immediately prior to activation of the calcium response.
A calcium response is initiated by the addition of one or more candidate receptor agonist compounds, calcium ionophore A23187 (10 μM; positive control), or ATP (4 μM; positive control). Fluorescence is measured by Molecular Device's FLIPR with an argon laser (excitation at 488 nm). (See, e.g., Kuntzweiler et al., Drug Dev. Res., 1998, 44(1), 14-20). The F-stop for the detector camera was set at 2.5, and the length of exposure was 0.4 milliseconds. Basal fluorescence of cells was measured for 20 seconds prior to addition of candidate agonist, ATP, or A23187, and the basal fluorescence level was subtracted from the response signal. The calcium signal is measured for approximately 200 seconds, taking readings every two seconds. Calcium ionophore A23187 and ATP increase the calcium signal 200% above baseline levels. In general, activated GPCRs increase the calcium signal approximately 10-15% above baseline signal.
as §3

[7] = system: DmGPCR4; assay: [35S]GTPγS binding assay, membranes of transfected CHO cells; type: biochemical, Drosophila melanogaster; conditions: given in words
Protocol: as §1, with “The membrane pellet was washed once with TEE, resuspended in 20 mM HEPES, pH 7.4, 100 mM NaCl, 10 mM MgCl2, 1 mM EDTA (assay buffer), aliquoted and frozen in liquid nitrogen. Membrane aliquots were stored at −70° C.” left out, “standard. […]” for “standard.”
as §2, with “y=Bottom+(Top−Bottom)/(1+10^LogEC50-X). […]” for “y=Bottom+(Top−Bottom)/(1+10^LogEC50-X).”

[8] = system: first Drosophila allatostatin receptor; conditions: via Gi/Go pathways; cited from earlier work
[9] = target: DmGPCR8; assay: [35S]GTPγS binding assay, dose response; type: biochemical, Drosophila melanogaster; conditions: DmGPCR8 in CHO-10001A cells; given in words
Protocol: as §1, with “The membrane pellet was washed once with TEE, resuspended in 20 mM HEPES, pH 7.4, 100 mM NaCl, 10 mM MgCl2, 1 mM EDTA (assay buffer), aliquoted and frozen in liquid nitrogen. Membrane aliquots were stored at −70° C.” left out, “standard. […]” for “standard.”
as §2, with “y=Bottom+(Top−Bottom)/(1+10^LogEC50-X). […]” for “y=Bottom+(Top−Bottom)/(1+10^LogEC50-X).”
Target sequence in this assay (as listed by the source): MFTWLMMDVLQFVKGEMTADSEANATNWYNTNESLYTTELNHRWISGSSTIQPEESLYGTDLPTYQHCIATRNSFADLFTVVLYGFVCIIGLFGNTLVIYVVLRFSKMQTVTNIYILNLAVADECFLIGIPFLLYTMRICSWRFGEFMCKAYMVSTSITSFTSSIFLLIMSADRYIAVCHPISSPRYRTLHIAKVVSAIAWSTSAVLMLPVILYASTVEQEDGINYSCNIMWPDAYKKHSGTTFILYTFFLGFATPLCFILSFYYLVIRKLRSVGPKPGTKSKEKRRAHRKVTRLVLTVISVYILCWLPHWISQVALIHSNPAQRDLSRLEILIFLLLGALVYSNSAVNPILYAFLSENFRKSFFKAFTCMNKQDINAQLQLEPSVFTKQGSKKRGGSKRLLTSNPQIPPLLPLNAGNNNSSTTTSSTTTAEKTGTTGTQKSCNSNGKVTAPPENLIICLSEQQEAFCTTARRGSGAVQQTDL

[10] = system: DmGPCR8; assay: direct calcium mobilization assay (FLIPR); type: cell-based, Drosophila melanogaster; conditions: DmGPCR8 without chimeric G-protein
Protocol: as §4, §5
Target sequence in this assay (as listed by the source): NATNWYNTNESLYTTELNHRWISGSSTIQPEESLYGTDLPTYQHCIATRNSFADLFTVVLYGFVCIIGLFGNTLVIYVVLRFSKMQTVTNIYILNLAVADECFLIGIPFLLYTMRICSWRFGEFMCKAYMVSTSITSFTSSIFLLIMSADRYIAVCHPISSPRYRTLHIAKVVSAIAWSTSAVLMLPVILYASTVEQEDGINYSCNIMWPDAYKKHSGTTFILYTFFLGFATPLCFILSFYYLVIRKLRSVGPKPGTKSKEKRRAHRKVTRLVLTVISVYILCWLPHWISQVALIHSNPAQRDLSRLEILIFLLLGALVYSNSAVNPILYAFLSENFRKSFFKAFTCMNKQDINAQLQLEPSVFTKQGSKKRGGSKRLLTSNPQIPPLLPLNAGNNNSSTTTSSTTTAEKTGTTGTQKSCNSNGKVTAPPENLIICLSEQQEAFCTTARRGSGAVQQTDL

DmGPCR7, sequence (as listed by the source): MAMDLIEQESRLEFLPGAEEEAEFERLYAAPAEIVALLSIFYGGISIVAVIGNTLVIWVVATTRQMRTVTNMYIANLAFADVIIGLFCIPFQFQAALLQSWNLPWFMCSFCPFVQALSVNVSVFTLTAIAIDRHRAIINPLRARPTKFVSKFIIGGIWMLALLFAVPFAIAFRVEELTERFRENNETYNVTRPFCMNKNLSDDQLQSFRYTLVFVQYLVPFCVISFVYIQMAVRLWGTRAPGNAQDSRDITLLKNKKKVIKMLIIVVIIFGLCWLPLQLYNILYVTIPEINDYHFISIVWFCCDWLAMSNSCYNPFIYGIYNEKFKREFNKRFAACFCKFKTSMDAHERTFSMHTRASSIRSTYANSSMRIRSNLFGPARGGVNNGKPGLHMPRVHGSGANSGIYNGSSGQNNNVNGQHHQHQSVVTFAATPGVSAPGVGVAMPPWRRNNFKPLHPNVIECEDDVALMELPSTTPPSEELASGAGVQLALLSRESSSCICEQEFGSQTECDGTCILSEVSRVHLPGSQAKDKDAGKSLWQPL
DmGPCR4, sequence (as listed by the source): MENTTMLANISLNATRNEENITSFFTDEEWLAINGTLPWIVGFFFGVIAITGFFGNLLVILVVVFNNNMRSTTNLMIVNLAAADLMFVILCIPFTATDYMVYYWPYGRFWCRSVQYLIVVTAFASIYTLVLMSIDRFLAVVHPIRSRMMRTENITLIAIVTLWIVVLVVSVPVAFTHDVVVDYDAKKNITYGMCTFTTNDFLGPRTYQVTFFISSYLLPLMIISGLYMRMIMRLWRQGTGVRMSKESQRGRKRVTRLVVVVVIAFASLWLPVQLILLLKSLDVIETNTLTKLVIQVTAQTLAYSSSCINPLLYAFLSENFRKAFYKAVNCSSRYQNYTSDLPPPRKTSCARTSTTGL
DmGPCR9, sequence (as listed by the source): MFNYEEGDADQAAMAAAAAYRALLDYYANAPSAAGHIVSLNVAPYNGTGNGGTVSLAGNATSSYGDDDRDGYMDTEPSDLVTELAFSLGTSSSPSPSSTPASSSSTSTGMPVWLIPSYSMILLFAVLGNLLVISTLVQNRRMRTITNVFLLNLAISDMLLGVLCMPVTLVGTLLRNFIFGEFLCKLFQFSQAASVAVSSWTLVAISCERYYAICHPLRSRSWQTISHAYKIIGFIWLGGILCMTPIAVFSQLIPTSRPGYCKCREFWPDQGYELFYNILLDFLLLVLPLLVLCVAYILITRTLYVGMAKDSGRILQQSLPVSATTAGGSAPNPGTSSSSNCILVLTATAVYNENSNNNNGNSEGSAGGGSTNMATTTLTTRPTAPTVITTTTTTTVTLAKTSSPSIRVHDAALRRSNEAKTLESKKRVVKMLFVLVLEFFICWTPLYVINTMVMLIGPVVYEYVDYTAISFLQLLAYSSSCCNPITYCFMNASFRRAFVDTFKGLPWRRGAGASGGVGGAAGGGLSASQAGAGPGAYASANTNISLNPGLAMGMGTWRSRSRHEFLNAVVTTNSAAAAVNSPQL
T2 sequence (P25931 whole entry I47L): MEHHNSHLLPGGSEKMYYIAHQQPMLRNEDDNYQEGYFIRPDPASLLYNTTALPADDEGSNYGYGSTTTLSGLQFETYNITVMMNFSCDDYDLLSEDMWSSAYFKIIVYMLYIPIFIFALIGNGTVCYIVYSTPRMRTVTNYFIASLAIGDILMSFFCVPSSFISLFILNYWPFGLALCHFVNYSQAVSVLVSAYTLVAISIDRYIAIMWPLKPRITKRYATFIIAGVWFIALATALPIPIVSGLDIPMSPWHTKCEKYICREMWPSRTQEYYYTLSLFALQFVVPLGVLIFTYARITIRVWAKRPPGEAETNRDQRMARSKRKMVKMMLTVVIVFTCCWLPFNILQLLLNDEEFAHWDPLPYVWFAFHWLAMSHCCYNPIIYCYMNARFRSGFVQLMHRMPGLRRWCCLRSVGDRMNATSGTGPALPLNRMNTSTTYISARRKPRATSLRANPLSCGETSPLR
T3 sequence (P25931 16-464 I47L): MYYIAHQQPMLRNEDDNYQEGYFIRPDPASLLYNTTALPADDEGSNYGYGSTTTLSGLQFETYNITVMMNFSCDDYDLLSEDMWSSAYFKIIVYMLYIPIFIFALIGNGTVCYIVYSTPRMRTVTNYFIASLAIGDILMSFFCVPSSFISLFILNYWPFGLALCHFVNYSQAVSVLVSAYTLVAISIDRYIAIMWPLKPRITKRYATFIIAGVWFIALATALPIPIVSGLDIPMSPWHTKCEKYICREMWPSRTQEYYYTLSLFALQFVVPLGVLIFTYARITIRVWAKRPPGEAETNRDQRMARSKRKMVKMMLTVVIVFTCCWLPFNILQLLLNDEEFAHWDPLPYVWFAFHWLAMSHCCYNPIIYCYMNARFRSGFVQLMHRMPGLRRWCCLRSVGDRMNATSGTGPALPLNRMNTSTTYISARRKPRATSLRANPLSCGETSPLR
DmGPCR5, sequence (P30975 whole entry L70Q): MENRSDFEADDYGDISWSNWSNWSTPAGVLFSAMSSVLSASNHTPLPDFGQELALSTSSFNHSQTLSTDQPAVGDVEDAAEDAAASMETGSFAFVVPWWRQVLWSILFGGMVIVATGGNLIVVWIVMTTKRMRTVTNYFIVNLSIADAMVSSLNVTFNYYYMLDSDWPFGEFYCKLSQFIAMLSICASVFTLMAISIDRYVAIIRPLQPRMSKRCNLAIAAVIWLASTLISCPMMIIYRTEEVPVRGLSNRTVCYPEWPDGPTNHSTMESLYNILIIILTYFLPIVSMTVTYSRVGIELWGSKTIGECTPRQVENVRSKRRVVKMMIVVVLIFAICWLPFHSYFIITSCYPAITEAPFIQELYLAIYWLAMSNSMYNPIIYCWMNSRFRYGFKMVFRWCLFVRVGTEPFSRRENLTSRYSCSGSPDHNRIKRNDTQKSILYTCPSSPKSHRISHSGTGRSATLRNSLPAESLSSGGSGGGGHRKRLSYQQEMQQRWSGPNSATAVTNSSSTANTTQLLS
T1 sequence (P25931 other isoform, or with tags, fused parts or gaps I47L): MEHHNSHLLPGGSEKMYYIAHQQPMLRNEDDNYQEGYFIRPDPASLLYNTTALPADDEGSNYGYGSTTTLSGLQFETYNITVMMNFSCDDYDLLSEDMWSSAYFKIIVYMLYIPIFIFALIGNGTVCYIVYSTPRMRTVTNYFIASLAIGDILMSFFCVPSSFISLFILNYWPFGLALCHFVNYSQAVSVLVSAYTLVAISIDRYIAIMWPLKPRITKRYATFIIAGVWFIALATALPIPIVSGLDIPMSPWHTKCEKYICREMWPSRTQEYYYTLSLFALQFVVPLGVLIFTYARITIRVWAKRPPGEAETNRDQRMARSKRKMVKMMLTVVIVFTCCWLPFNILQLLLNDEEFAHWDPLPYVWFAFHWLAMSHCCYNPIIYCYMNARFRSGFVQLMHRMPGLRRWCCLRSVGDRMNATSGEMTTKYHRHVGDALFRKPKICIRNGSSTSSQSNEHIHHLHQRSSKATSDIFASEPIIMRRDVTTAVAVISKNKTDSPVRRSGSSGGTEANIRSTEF

Q: For APVNSFVGMR [DTK-4, APVNSFVGMR-NH2], which “EC50, stimulation of GTPγS binding” value [1] is on record?
A: Its value is “low micromolar range”.

Q: For “FDDYGHLRF-NH2 [unsulfated counterpart of FDDY(SO3H)GHLRF-NH2]”, which calcium signal [2] is on record?
A: The calcium signal was “very weak calcium signal”.

Q: With FLFQPQRF-NH2 [NPFF] as the substance, how does the “Ca+2 responses (FLIPR)” value [3] read?
A: Its value is “recognized”.

Q: And the “Ca+2 responses (FLIPR)” value [4]?
A: Its value is “recognized”.

Q: What about the “increase in GTPγS binding above the basal” value [5] of the same substance?
A: The value was 4 fold.

Q: Which “EC50, intracellular calcium release (FLIPR)” value [6] does the source give for NPFHSWG [Culekinin, NPFHSWGa] here?
A: Its value is “picomoloar to subnanomolar range”.

Q: For “NSVVLGKKQRFHSWGa (NSVVLGKKQRFHSWG-NH2) [DLK-1]”, which “EC50, intracellular calcium release (FLIPR)” value [6] is on record?
A: Its value is “picomoloar to subnanomolar range”.

Q: For QRFHSWG [DLK-2a, QRFHSWGa], which “EC50, intracellular calcium release (FLIPR)” value [6] is on record?
A: The value was “picomoloar to subnanomolar range”.

Q: Which “EC50, GTPγS responses” value [7] does the source give for “SRPYSFGL [drostatin-3, Ser-Arg-Pro-Tyr-Ser-Phe-Gly-Leu-NH2]” here?
A: Its value is “low nanomolar range”.

Q: What about the “functional activation of the receptor” value [8] of the same substance?
A: The value was “functionally activated”.

Q: With “[pGlu]VRFQCYFNPISCF-OH (cysteine pairing not given here) [AST-C]” as the substance, how does the “EC50, GTPγS-binding responses” value [9] read?
A: The value was “low nanomolar range”.

Q: And the “activity in direct calcium mobilization assay (FLIPR)” value [10]?
A: The value was “did not show any activity”.

Q: With pGlu-RFHSWGa [DLK-2] as the substance, how does the “EC50, intracellular calcium release (FLIPR)” value [6] read?
A: Its value is “picomoloar to subnanomolar range”.

Q: For pGlu-SSFHSWGa [LK-VI], which “EC50, intracellular calcium release (FLIPR)” value [6] is on record?
A: Its value is “picomoloar to subnanomolar range”.
